Measured values as given in patent publication US11458140B2, “Annulated glycosidase inhibitors” (Asceneuron SA, priority 2017, dated 2022).
Where two headings read alike, the source gives them in different places.

Target: Human O-GlcNAcase (His-Tagged hOGA) (Homo sapiens (Human), UniProt O60502)
Assay: Human O-GlcNAcase enzyme inhibition assay (FL-GlcNAc fluorescence)
Format: biochemical
Conditions: His-Tagged hOGA 20 nM, FL-GlcNAc 10 μM, 60 min at room temperature, pH 6.5
Procedure: Then, 20 nM of His-Tagged hOGA and 10 μM of FL-GlcNAc (Fluorescein mono-beta-D-(2-deoxy-2-N-acetyl) glucopyranoside; Marker Gene Technologies Inc, M1485) were added to the 384-well plate for a final volume of 20 μl.

Human O-GlcNAcase (His-Tagged hOGA), sequence (O60502 whole entry): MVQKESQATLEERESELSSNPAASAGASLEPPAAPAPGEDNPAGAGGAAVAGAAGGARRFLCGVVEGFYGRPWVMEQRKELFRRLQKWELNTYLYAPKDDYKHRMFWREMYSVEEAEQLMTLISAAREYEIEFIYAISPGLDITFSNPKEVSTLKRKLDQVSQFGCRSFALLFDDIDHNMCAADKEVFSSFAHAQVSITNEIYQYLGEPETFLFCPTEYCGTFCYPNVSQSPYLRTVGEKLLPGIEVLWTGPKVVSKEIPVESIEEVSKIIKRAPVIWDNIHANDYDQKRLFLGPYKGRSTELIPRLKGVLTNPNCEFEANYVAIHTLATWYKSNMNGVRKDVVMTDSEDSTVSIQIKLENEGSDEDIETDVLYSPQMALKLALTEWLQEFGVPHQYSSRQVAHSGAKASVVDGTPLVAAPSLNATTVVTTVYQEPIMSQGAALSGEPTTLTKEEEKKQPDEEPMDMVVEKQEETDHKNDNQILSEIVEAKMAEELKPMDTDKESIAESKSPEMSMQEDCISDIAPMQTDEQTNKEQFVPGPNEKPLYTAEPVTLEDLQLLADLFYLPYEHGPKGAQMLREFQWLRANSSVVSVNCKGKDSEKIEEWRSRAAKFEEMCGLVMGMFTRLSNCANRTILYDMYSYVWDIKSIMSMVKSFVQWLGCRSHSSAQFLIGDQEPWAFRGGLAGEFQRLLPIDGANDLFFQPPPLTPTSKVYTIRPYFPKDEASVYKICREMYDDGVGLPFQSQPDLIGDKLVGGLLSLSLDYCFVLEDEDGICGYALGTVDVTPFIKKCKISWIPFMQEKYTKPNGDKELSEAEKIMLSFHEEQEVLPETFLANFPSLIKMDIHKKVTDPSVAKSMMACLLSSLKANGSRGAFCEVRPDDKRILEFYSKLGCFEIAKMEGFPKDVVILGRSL

Row | Molecule | IC50 (read-out: Enzymatic OGA IC50) [M] | IC50 (Enzymatic OGA IC50 (M)) [M]
1 | 5-(1-(2,3-dihydrobenzofuran-6-yl)ethyl)-1-(pyridin-2-yl)-4,5,6,7-tetrahydro-1H-pyrazolo[4,3-c]pyridine [Example 9] | 5e-08 to 2e-07 | 
2 | 5-(1-(2,3-dihydrobenzofuran-6-yl)ethyl)-2-(pyridin-2-yl)-4,5,6,7-tetrahydro-2H-pyrazolo[4,3-c]pyridine [Example 10] | 5e-08 to 2e-07 | 
3 | CC(=O)Nc1ncc2c(n1)CCN(C(C)c1ccc3c(c1)OCO3)C2 (racemic) [Example 1, N-(6-(1-(benzo[d][1,3]dioxol-5-yl)ethyl)-5,6,7,8-tetrahydropyrido[4,3-d]pyrimidin-2-yl)acetamide] | 1e-06 to 1e-05 | 
4 | CC(c1ccc2c(c1)OCO2)N1CCc2ccccc2C1 (racemic) [Example 2, 2-(1-(benzo[d][1,3]dioxol-5-yl)ethyl)-1,2,3,4-tetrahydroisoquinoline] | 2e-07 to 1e-06 | 
5 | CC(=O)Nc1nc2c(s1)CN(C(C)c1ccc3c(c1)OCO3)CC2 (racemic) [Example 3, N-(5-(1-(benzo[d][1,3]dioxol-5-yl)ethyl)-4,5,6,7-tetrahydrothiazolo[5,4-c]pyridin-2-yl)acetamide] |  | 2e-07 to 1e-06
6 | CC(c1ccc2c(c1)OCC2)N1CCc2n[nH]cc2C1 (racemic) [Example 4, 5-(1-(2,3-dihydrobenzofuran-6-yl)ethyl)-4,5,6,7-tetrahydro-2H-pyrazolo[4,3-c]pyridine] | 5e-08 to 2e-07 | 
7 | CC(c1ccc2c(c1)OCC2)N1CCc2c(cnn2-c2ccc(F)cc2)C1 (racemic) [Example 5, 5-(1-(2,3-dihydrobenzofuran-6-yl)ethyl)-1-(4-fluorophenyl)-4,5,6,7-tetrahydro-1H-pyrazolo[4,3-c]pyridine] | 5e-08 to 2e-07 | 
8 | CC(c1ccc2c(c1)OCC2)N1CCc2nn(-c3ccc(F)cc3)cc2C1 (racemic) [Example 6, 5-(1-(2,3-dihydrobenzofuran-6-yl)ethyl)-2-(4-fluorophenyl)-4,5,6,7-tetrahydro-2H-pyrazolo[4,3-c]pyridine] | 5e-08 to 2e-07 | 
9 | CC(c1ccc2c(c1)OCC2)N1CCc2c(cnn2-c2ccccc2)C1 (racemic) [Example 7, 5-(1-(2,3-dihydrobenzofuran-6-yl)ethyl)-1-phenyl-4,5,6,7-tetrahydro-1H-pyrazolo[4,3-c]pyridine] | 5e-08 to 2e-07 | 
10 | CC(c1ccc2c(c1)OCC2)N1CCc2nn(-c3ccccc3)cc2C1 (racemic) [Example 8, 5-(1-(2,3-dihydrobenzofuran-6-yl)ethyl)-2-phenyl-4,5,6,7-tetrahydro-2H-pyrazolo[4,3-c]pyridine] | 5e-08 to 2e-07 | 
11 | CC(c1ccc2c(c1)OCC2)N1CCc2nc(-c3ccc(F)cc3)sc2C1 (racemic) [Example 11, 5-(1-(2,3-dihydrobenzofuran-6-yl)ethyl)-2-(4-fluorophenyl)-4,5,6,7-tetrahydrothiazolo[5,4-c]pyridine] | 2e-07 to 1e-06 | 
12 | CC(c1ccc2c(c1)OCC2)N1CCc2c(cnn2-c2cncnc2)C1 (racemic) [Example 14, 5-(1-(2,3-dihydrobenzofuran-6-yl)ethyl)-1-(pyrimidin-5-yl)-4,5,6,7-tetrahydro-1H-pyrazolo[4,3-c]pyridine] | 2e-07 to 1e-06 | 
13 | CC(c1ccc2c(c1)OCC2)N1CCn2nc(-c3ccc(S(C)(=O)=O)cc3)nc2C1 (racemic) [Example 17] |  | 1e-06 to 1e-05
14 | CC(c1ccc2c(c1)OCC2)N1CCn2nc(-c3cccnc3)nc2C1 (racemic) [Example 18, 7-(1-(2,3-dihydrobenzofuran-6-yl)ethyl)-2-(pyridin-3-yl)-5,6,7,8-tetrahydro-[1,2,4]triazolo[1,5-a]pyrazine] | 1e-06 to 1e-05 | 
15 | CC(c1ccc2c(c1)OCC2)N1CCn2nc(Nc3ccc(C#N)cn3)nc2C1 (racemic) [Example 19, 6-((7-(1-(2,3-dihydrobenzofuran-6-yl)ethyl)-5,6,7,8-tetrahydro-[1,2,4]triazolo[1,5-a]pyrazin-2-yl)amino)nicotinonitrile] | 1e-06 to 1e-05 | 
16 | CC(c1ccc2c(c1)OCC2)N1CCc2nn(Cc3ncccn3)cc2C1 (racemic) [Example 20, 5-(1-(2,3-dihydrobenzofuran-6-yl)ethyl)-2-(pyrimidin-2-ylmethyl)-4,5,6,7-tetrahydro-2H-pyrazolo[4,3-c]pyridine] | 2e-07 to 1e-06 | 
17 | CC(c1ccc2c(c1)OCC2)N1CCc2c(cnn2Cc2ncccn2)C1 (racemic) [Example 21, 5-(1-(2,3-dihydrobenzofuran-6-yl)ethyl)-1-(pyrimidin-2-ylmethyl)-4,5,6,7-tetrahydro-1H-pyrazolo[4,3-c]pyridine] | 2e-07 to 1e-06 | 
18 | CC(c1ccc2c(c1)OCC2)N1CCc2nn(-c3ccccc3)cc2C1 (single isomer, unassigned) [Example 12] | 1e-06 to 1e-05 | 
19 | CC(c1ccc2c(c1)OCC2)N1CCc2nn(-c3ccccc3)cc2C1 (single isomer, unassigned) [Example 13] | 5e-08 to 2e-07 | 
20 | CC(c1ccc2c(c1)OCC2)N1CCc2nn(C3CCOCC3)cc2C1 (centres unmarked) [Example 15, 5-(1-(2,3-dihydrobenzofuran-6-yl)ethyl)-1-(tetrahydro-2H-pyran-4-yl)-4,5,6,7-tetrahydro-1H-pyrazolo[4,3-c]pyridine or 5-(1-(2,3-dihydrobenzofuran-6-yl)ethyl)-2-(tetrahydro-2H-pyran-4-yl)-4,5,6,7-tetrahydro-2H-pyrazolo[4,3-c]pyridine] | 1e-06 to 1e-05 | 
